{"source": "patent US20200061092A1", "about": "“METHODS AND COMPOSITIONS FOR TREATING DISORDERS ASSOCIATED WITH MUSCLE WEAKNESS” (priority 2018, published 2020)", "key": {"FKRP P448L mutant mice [1]": {"tested_on": "FKRP P448L mutant mice", "test": "Ribitol toxicity evaluation: body weight, histology of liver, kidney and spleen, serum biochemical markers", "assay_type": "in vivo, mouse", "procedure": "All animal studies were approved by the Institutional Animal Care and Use Committee (IACUC) of Carolinas Medical Center. All mice were housed in the vivarium of Carolinas Medical Center following animal care guidelines of the institute. Animals were ear tagged prior to group assignment. Food and water were available ad libitum during all phase of the study. Body weight was measured from 6 weeks to 19 weeks of age.\nRibitol was purchased from Sigma (A5502 Adonitol, ≥98%, Sigma, St. Louis) and dissolved in drinking water to the final concentration of 5% or 10%. P448L mice aged at 4 weeks were treated with 5% ribitol drinking water for 1 month and P448L mice aged at 7 weeks were treated with 5% ribitol drinking water for 3 months and 6 months. All the mice were randomly assigned to either treatment or control groups. And a minimum number of 4 mice were used for each group. No animal was excluded. P448L female breeders were given 10% ribitol in drinking water during pregnancy, and pups continued to be treated with 10% ribitol in drinking water until they were euthanized at 19 weeks of age. Untreated age-matched P448L and wild-type C57BL/6 mice were used as controls. The animals were terminated at the end of each treatment time point and tissues including heart, diaphragm, TA, quadriceps, liver, spleen and kidney were collected for analyses.\nFrozen tissues were processed for hematoxylin and eosin (H&E) and Masson's Trichrome staining following standard procedures. Muscle cross-sectional fiber equivalent diameter was determined from tibialis anterior and quadriceps stained with H&E using MetaMorph v7.7 Software (Molecular Devices). Percentage of centrally nucleated myofibers were manually quantified from the same tissue sections stained with H&E. Fibrotic area represented by blue staining in the Masson's Trichrome stained sections was quantified from heart, diaphragm, tibialis anterior and quadriceps using ImageJ software. For all the morphometric analyses, a total of 300 to 400 fibers from two representative 20× magnification images per each muscle per animal were used."}, "FKRP P448L mutant mice [2]": {"tested_on": "FKRP P448L mutant mice", "test": "Whole body plethysmography (respiratory function) in P448L mice", "assay_type": "in vivo, mouse", "procedure": "Respiratory functional analysis in conscious, freely moving 18 and 31 weeks old mice were measured using a whole-body plethysmography technique. The plethysmograph apparatus (Emka Technologies, Falls Church, Va.) was connected to a ventilation pump for the purpose of maintaining a constant air flow, a differential pressure transducer, a usbAMP signal amplifier, and a computer running EMKA iox2 software with the respiratory flow analyzer module, which was used to detect pressure changes due to breathing and recording the transducer signal. An initial amount of 20 mL of air was injected and withdrawn via a 20 mL syringe into the chamber for the purpose of calibration. Mice were placed inside the “free moving” plethysmograph chamber and allowed to acclimate for 5 min in order to minimize any effects of stress related changes in ventilation. Resting ventilation was measured for a duration of 15 min after the acclimation period. Body temperatures of all mice were assumed to be 37° C. and to remain constant during the ventilation protocol."}, "[3]": {"test": "Serum ribitol measurement by LC/MS-MS", "assay_type": "in vivo", "from_the_text": "Ribitol was purchased from Sigma (A5502). Sera were collected, and blinded samples were placed in individual wells of a 96-well plate and analyzed by LC/MS-MS. An Applied Biosystems Sciex 4000 (Applied Biosystems; Foster City, Calif.) equipped with a Shimadzu HPLC (Shimadzu Scientific Instruments, Inc.: Columbia, Md.) and Leap auto-sampler (LEAP Technologies; Carrboro, N.C.) were used to detect ribitol from samples and synthetic compound. […] MeOH:ACN (1:1). The following gradient was used: 0-12 min, 5% buffer B; 13-14 min, 95% buffer B, 15-17 min, 5% buffer B. Under these conditions, ribitol eluted at 8.3 min. The metabolite was analyzed using electrospray ionization mass spectrometry operated in positive ion mode, ESI+. Compound concentrations in tissue samples were determined based on standard curves prepared by serial dilutions (200-0.01 μM) of the compound in MeOH:ACN (1:1)."}, "[4]": {"tested_on": "FKRP and LARGE transcripts", "test": "Quantitative real-time PCR of FKRP and LARGE transcripts in muscles of P448L mice", "assay_type": "in vivo, mouse", "details": "5% ribitol, 3 months (FIG. 11b); cardiac muscle, limb muscle, diaphragm", "procedure": "Tissues were collected from heart, diaphragm and tibialis anterior. RNA was extracted using TRIzol (Invitrogen) following the supplied protocol. Final RNA pellet was re-suspended in 20 μl RNAse-nuclease free water. Final RNA concentration was determined using Nanodrop 2000c. One μg of RNA was subsequently converted to cDNA using the High-Capacity RNA-to-cDNA™ Kit (Applied Biosystems) following the supplied protocol. cDNA was then used for quantitative real-time PCR using the mouse FKRP-FAM (Mm00557870_m1) and LARGE-FAM (Mm00521885 ml) taqman assay with primer limited GAPDH-VIC (Mm99999915_g1) as the internal control and TaqMan® Universal Master Mix II, with UNG (Life Technologies). […] Results of FKRP and LARGE transcript were calculated and expressed as 2^-ΔΔCt and compared across tissues and animals."}, "[5]": {"details": "10% ribitol from pregnancy, 18 weeks of age"}, "[6]": {"details": "5% ribitol in drinking water (n = 4)"}}, "note": "“And” between values parts separate entries of the source, which are not always exact repeats. Identical values can stand only once.", "data": [{"compound": "OC[C@@H](O)[C@@H](O)[C@@H](O)CO", "note": "[ribitol]", "values": [{"measurement": "Histology of liver, kidney and spleen (H&E)", "setting": "FKRP P448L mutant mice [1]; 5% ribitol, 3 or 6 months", "value": "normal structure without degeneration and inflammation"}, {"measurement": "Serum markers of liver and kidney function (ALP, ALT, t-Bil, c-Bil, unc-Bil, BUN, Crea), treated vs untreated", "setting": "FKRP P448L mutant mice [1]; 5% ribitol, 6 months", "value": "No statistical significance"}, {"measurement": "Serum triglycerides (TRG) and glucose (GLU), treated vs untreated", "setting": "FKRP P448L mutant mice [1]; 5% ribitol, 6 months", "value": "similar"}, {"measurement": "Body weight vs age-matched untreated P448L", "setting": "FKRP P448L mutant mice [1]; 10% ribitol from embryonic stage or 5% ribitol from 7 weeks of age, all time points", "value": "No significant difference"}, {"measurement": "Effect on pregnancy, embryo development, body weight and overall behavior", "setting": "FKRP P448L mutant mice [1]; oral ribitol from pregnancy to adult", "value": "does not affect"}, {"measurement": "Tidal volume (TV), expiratory volume (EV), minute volume (MV) vs untreated", "setting": "FKRP P448L mutant mice [2]; 5% ribitol, 3 and 6 months", "value": "trend of improvement"}, {"measurement": "Improvement in EV and MV", "setting": "FKRP P448L mutant mice [2]; 5% ribitol, 6 months", "value": "statistically significant"}, {"measurement": "Peak inspiratory flow (PIF) and peak expiratory flow (PEF)", "setting": "FKRP P448L mutant mice [2]; 5% ribitol, 6 months", "value": "Improvement was also observed"}, {"measurement": "Expired volume (EV), relaxation time (RT), enhanced pause (Penh)", "setting": "FKRP P448L mutant mice [2]; [5]", "value": "improvement"}, {"measurement": "Minute volume (MV) and end-expiratory pause (EEP) vs untreated", "setting": "FKRP P448L mutant mice [2]; [5]", "value": "reaching significant difference"}, {"measurement": "Mean serum ribitol", "setting": "[3]; [6]", "value": 2355, "unit": "ug ug/L"}, {"measurement": "Serum ribitol, individual animals", "setting": "[3]; [6]", "value": "924 ng/ml and 4221 ng/ml and 3184 ng/ml and 1092, ng/ml"}, {"measurement": "Therapeutic serum concentration in excess of normal ribitol serum levels", "setting": "[3]; about 10 mg/L vs normal serum level", "value": "roughly 1000 ×"}, {"measurement": "Tolerability at therapeutic serum concentration", "setting": "[3]; serum about 10 mg/L", "value": "no observable side effects"}, {"measurement": "FKRP and LARGE transcript levels, treated vs untreated", "setting": "[4]", "value": "No statistically significant difference"}]}]}
